Data: US11879893B2, “Rapid detection test for SARS-CoV-2” (priority 2020, dated 2024)
Like-named read-outs stand apart in the source and are kept apart here. Marks after values point to notes of the source that are not given here. Square brackets hold non-standard residues; d marks the D form. Primed or numbered codes have the meaning given here. Peptide text beside a SMILES is read from it. * marks the point of attachment. Dabcyl′ = CN(C)c1ccc(/N=N/c2ccc(C(=O)*)cc2)cc1; Dabcyl = CN(C)c1ccc(N=Nc2ccc(C(=O)*)cc2)cc1; EDANS = O=S(=O)(O)c1cccc2c(NCCN*)cccc12; Sta = CC(C)C[C@H](N)[C@@H](O)CC(=O)O; Isovaleryl = CC(C)CC(=O)*

How the values were obtained:
[1] = system: non-specific protease activity in saliva; experiment: Inhibitor test in saliva samples: non-specific protease activity; assay type: biochemical
Procedure: (§1) The purpose of adding protease inhibitors to the buffer is to reduce nonspecific saliva activity and increase signal to noise ratio. 29 inhibitors were tested using a competitive enzymatic activity assay of 3CL Protease in saliva samples.

3CL Protease [2] = target: T1, 3CL Protease (Severe acute respiratory syndrome coronavirus 2, UniProt P0DTC1); assay type: biochemical, SARS-CoV-2; details: saliva samples
T1 construct: 6xHIS-tag (N); TEV-protease cleavage site (ENLYFQG) (N); made in house
Procedure: as §1

[3] = system: Buccal sample non-specific protease activity; experiment: Inhibitor test in buccal samples: non-specific protease activity; assay type: biochemical
Procedure: Optimizing Inhibitor Cocktail to Maximize Buccal Sample Non-Specific Protease Activity Inhibition
(§2) 29 inhibitors were tested using a competitive enzymatic activity assay of 3CL protease in buccal samples.

3CL = target: T2, 3CL (Severe acute respiratory syndrome coronavirus 2, UniProt P0DTC1); assay type: biochemical, SARS-CoV-2
T2 construct: 6xHIS-tag (N); TEV-protease cleavage site (ENLYFQG) (N); made in house; host or cells: Rosetta BL21 E. coli, pET14b
Procedure: In order to find the final and optimal reaction conditions, several parameters were tested:
Reducing agent: DTT and TCEP were tested at various concentrations to see if enzyme activity was affected.

3CL Protease [4] = target: T1, 3CL Protease; assay type: biochemical, SARS-CoV-2
Procedure: as §2

Saliva = experiment: Substrate cleavage by saliva (nonspecific activity); assay type: biochemical
Procedure: For these enzymatic reactions 150 ng/well enzyme was used under final and optimized assay conditions, i.e. […] Experiment were tested with 3 different saliva samples; representative results are shown.

SARS-CoV-2 3CL Pro = SARS-CoV-2 3CL Pro (Severe acute respiratory syndrome coronavirus 2, UniProt P0DTC1); details: for Enzymatic activity, Slope, SARS-CoV-2: enzyme 150 ng/reaction; for % Enz activity, SARS-CoV-2: Table 5: relative to the substrate's own protease = 100
HRV 3C protease = experiment: Substrate cleavage by HRV 3C protease; assay type: biochemical, Human Rhinovirus (HRV); details: for % Enz activity, HRV: Table 5: relative to the substrate's own protease = 100
Procedure: (§3) Running condition: Substrate concentration-5 uM, enzyme concentration 150 ng/reaction.
(§4) Enzymatic activity (RFU/min) of SARS-CoV-2, HCoV-229E and HRV 3CL and 3C proteases using peptide (SEQ ID NO: 8) is summarized in Table 6. Substrate concentration-1 μM, enzyme concentration 150 ng/reaction.

HCoV-229E 3CL protease = target: T3, HCoV-229E 3CL protease (Human coronavirus 229E, UniProt P0C6U2); experiment: Substrate cleavage by HCoV-229E 3CL protease; assay type: biochemical; details: for Enzymatic activity, Slope, HCoV-229E / cross reactivity SARS-CoV-2 versus HCoV-229E protease: enzyme 150 ng/reaction; for % Enz activity, HCoV-229E: Table 5: relative to the substrate's own protease = 100; for cross reactivity SARS-CoV-2 versus HCoV-229E protease: substrate 5 uM
T3 construct: 6xHIS-tag (N); TEV-protease cleavage site (ENLYFQG) (N); made in house; host or cells: Rosetta BL21 E. coli, pET14b
Procedure: as §3, §4

[5] = Table 2: 5 μM substrate, Dabcyl/EDANS, final buffer
[6] = Table 2: 150 ng/well enzyme, 5 μM substrate, Dabcyl/EDANS, final buffer
[7] = Table 4: substrate 5 uM, enzyme 150 ng/reaction
[8] = Table 3: 1 uM substrate, 488/535 nm, gain 1400, buffer without BSA

2,6 PDA
non-specific protease activity in saliva [1]: decreased | inhibition of 3CL specific activity (3CL Protease [2]): non significant inhibition | ranking among 29 inhibitors tested [3]: four best inhibitors

O[C@@H](CS)[C@@H](O)CS [DTT]
effect of reducing agent on enzyme activity (3CL; various concentrations, DTT 5 mM): most effective at preserving enzyme activity

[Cl-].[Na+] [NaCl]
effect of potential enzyme mediator on enzyme activity (3CL): No positive effect

O=S(=O)(F)Cc1ccccc1 [PMSF]
non-specific protease activity in saliva [1]: decreased | inhibition of 3CL specific activity (3CL Protease [2]): non significant inhibition | non-specific protease activity [3]: decreased | ranking among 29 inhibitors tested [3]: four best inhibitors | inhibition of 3CL specific activity (3CL Protease [4]; buccal samples): non significant inhibition

OCC(O)CO [glycerol]
effect of potential enzyme mediator on enzyme activity (3CL): No positive effect

CC(C)CC(=O)N[C@H](C(=O)N[C@H](C(=O)N[C@@H](CC(C)C)[C@@H](O)CC(=O)N[C@@H](C)C(=O)N[C@@H](CC(C)C)[C@@H](O)CC(=O)O)C(C)C)C(C)C [pepstatin] (Isovaleryl-VV[Sta]A[Sta]-OH)
non-specific protease activity [3]: decreased | inhibition of 3CL specific activity (3CL Protease [4]): non significant inhibition

AC-DEVD-CHO
non-specific protease activity in saliva [1]: decreased | inhibition of 3CL specific activity (3CL Protease [2]): non significant inhibition

Aprotinin
non-specific protease activity in saliva [1]: decreased | inhibition of 3CL specific activity (3CL Protease [2]): non significant inhibition | non-specific protease activity [3]: decreased | inhibition of 3CL specific activity (3CL Protease [4]; buccal samples): non significant inhibition

Dabcyl-AVLQSGF-{EDANS} [Substrate#3]
Saliva (Saliva; [5]): 47 +/− 5 | Enzyme (SARS-CoV-2 3CL Pro; [6]): 354 +/− 18

Dabcyl-AVLQSGFRK-EDANS ({Dabcyl′}-AVLQSGFRK-{EDANS}; SMILES CC(C)C[C@H](NC(=O)[C@@H](NC(=O)[C@H](C)NC(=O)c1ccc(/N=N/c2ccc(N(C)C)cc2)cc1)C(C)C)C(=O)N[C@@H](CCC(N)=O)C(=O)N[C@@H](CO)C(=O)NCC(=O)N[C@@H](Cc1ccccc1)C(=O)N[C@@H](CCCNC(=N)N)C(=O)N[C@@H](CCCCN)C(=O)NCCNc1cccc2c(S(=O)(=O)O)cccc12) [Substrate#4]
Saliva (Saliva; [5]): 1515 +/− 40 | Enzyme (SARS-CoV-2 3CL Pro; [6]): 1077 +/− 35

Dabcyl-KTSAVLQSGFRKME-EDANS [Commercial substrate, reference compound]
Saliva (Saliva; [5]): 2309 +/− 64 | Enzymatic activity, Slope, HRV (HRV 3C protease; [7]): 87 RFU/min | % Enz activity, HRV (HRV 3C protease): 1% | Enzymatic activity, Slope, HCoV-229E (HCoV-229E 3CL protease; Table 4: substrate 5 uM): 493 RFU/min | % Enz activity, HCoV-229E (HCoV-229E 3CL protease): 26% | cross reactivity SARS-CoV-2 versus HCoV-229E protease (HCoV-229E 3CL protease): greater activity towards SARS-CoV-2 than HCoV-229E protease

Dabcyl-LEALFQGP[Asp-(EDANS) SQ [Amide] ({Dabcyl′}-LEALFQGPD(EDANS)SQ-NH2; SMILES CC(C)C[C@H](NC(=O)c1ccc(/N=N/c2ccc(N(C)C)cc2)cc1)C(=O)N[C@@H](CCC(=O)O)C(=O)N[C@@H](C)C(=O)N[C@@H](CC(C)C)C(=O)N[C@@H](Cc1ccccc1)C(=O)N[C@@H](CCC(N)=O)C(=O)NCC(=O)N1CCC[C@H]1C(=O)N[C@@H](CC(=O)NCCNc1cccc2c(S(=O)(=O)O)cccc12)C(=O)N[C@@H](CO)C(=O)N[C@@H](CCC(N)=O)C(N)=O) [Biosyn#7]
Enzymatic activity, Slope, HRV (HRV 3C protease; [7]): 1041 RFU/min | % Enz activity, HRV (HRV 3C protease): 100% | specificity for HRV (HRV 3C protease; substrate 5 uM, enzyme 150 ng/reaction): specific for HRV | Enzymatic activity, Slope, HCoV-229E (HCoV-229E 3CL protease; Table 4: substrate 5 uM): 45 RFU/min | % Enz activity, HCoV-229E (HCoV-229E 3CL protease): 0% | Enzymatic activity, Slope, SARS-CoV-2 (SARS-CoV-2 3CL Pro; Table 4: substrate 5 uM): 43 RFU/min | % Enz activity, SARS-CoV-2 (SARS-CoV-2 3CL Pro): 0%

Dabcyl-TSAVLQSGF-EDANS ({Dabcyl′}-TSAVLQSGF-{EDANS}; SMILES CC(C)C[C@H](NC(=O)[C@@H](NC(=O)[C@H](C)NC(=O)[C@H](CO)NC(=O)[C@@H](NC(=O)c1ccc(/N=N/c2ccc(N(C)C)cc2)cc1)[C@@H](C)O)C(C)C)C(=O)N[C@@H](CCC(N)=O)C(=O)N[C@@H](CO)C(=O)NCC(=O)N[C@@H](Cc1ccccc1)C(=O)NCCNc1cccc2c(S(=O)(=O)O)cccc12) [Substrate#2]
Saliva (Saliva; [5]): 187 +/− 7 | Enzyme (SARS-CoV-2 3CL Pro; [6]): 449 +/− 36

Dabcyl-TSAVLQSGFRK-EDANS [Biosyn #1]
Saliva (Saliva; [5]): 1123 +/− 35 | Enzymatic activity, Slope, HRV (HRV 3C protease; [7]): −12 RFU/min | % Enz activity, HRV (HRV 3C protease): −1* % | Enzymatic activity, Slope, HCoV-229E (HCoV-229E 3CL protease; Table 4: substrate 5 uM): 856 RFU/min | % Enz activity, HCoV-229E (HCoV-229E 3CL protease): 95% | cross reactivity SARS-CoV-2 versus HCoV-229E protease (HCoV-229E 3CL protease): Cross reactivity was detected

Dabcyl-TSAVLQSGFYK-EDANS ({Dabcyl′}-TSAVLQSGFYK-{EDANS}; SMILES CC(C)C[C@H](NC(=O)[C@@H](NC(=O)[C@H](C)NC(=O)[C@H](CO)NC(=O)[C@@H](NC(=O)c1ccc(/N=N/c2ccc(N(C)C)cc2)cc1)[C@@H](C)O)C(C)C)C(=O)N[C@@H](CCC(N)=O)C(=O)N[C@@H](CO)C(=O)NCC(=O)N[C@@H](Cc1ccccc1)C(=O)N[C@@H](Cc1ccc(O)cc1)C(=O)N[C@@H](CCCCN)C(=O)NCCNc1cccc2c(S(=O)(=O)O)cccc12) [Substrate#5]
Saliva (Saliva; [5]): 4688 +/− 53 | Enzyme (SARS-CoV-2 3CL Pro; [6]): 527 +/− 7

Dabcyl-YGSTLQAGLRK-EDANS ({Dabcyl′}-YGSTLQAGLRK-{EDANS}; SMILES CC(C)C[C@H](NC(=O)CNC(=O)[C@H](C)NC(=O)[C@H](CCC(N)=O)NC(=O)[C@H](CC(C)C)NC(=O)[C@@H](NC(=O)[C@H](CO)NC(=O)CNC(=O)[C@H](Cc1ccc(O)cc1)NC(=O)c1ccc(/N=N/c2ccc(N(C)C)cc2)cc1)[C@@H](C)O)C(=O)N[C@@H](CCCNC(=N)N)C(=O)N[C@@H](CCCCN)C(=O)NCCNc1cccc2c(S(=O)(=O)O)cccc12) [Biosyn#6]
Enzymatic activity, Slope, HRV (HRV 3C protease; [7]): 44 RFU/min | % Enz activity, HRV (HRV 3C protease): −7* % | Enzymatic activity, Slope, HCoV-229E (HCoV-229E 3CL protease; Table 4: substrate 5 uM): 213 RFU/min | % Enz activity, HCoV-229E (HCoV-229E 3CL protease): 100% | cross reactivity SARS-CoV-2 versus HCoV-229E protease (HCoV-229E 3CL protease): greater activity towards SARS-CoV-2 than HCoV-229E protease | Enzymatic activity, Slope, SARS-CoV-2 (SARS-CoV-2 3CL Pro; Table 4: substrate 5 uM): 349 RFU/min | % Enz activity, SARS-CoV-2 (SARS-CoV-2 3CL Pro): 190%

[BHQ-1]-AVLQSGF-[Cys(AF488)]-RK-amide ({BHQ‑1}-AVLQSGFC(AF488)RK-NH2) [CBR #3]
Saliva (Saliva; [8]): 154 +/− 6 | Enzyme (SARS-CoV-2 3CL Pro; [8]): 461 +/− 18

[BHQ-1]-AVLQSGFRK-[Cys(AF488)]-amide ({BHQ‑1}-AVLQSGFRKC(AF488)-NH2) [CBR #4]
Saliva (Saliva; [8]): 726 +/− 25 | Enzyme (SARS-CoV-2 3CL Pro; [8]): 657 +/− 6

[BHQ-1]-TSAVLQSGF-[Cys(AF488)]-RK-amide ({BHQ‑1}-TSAVLQSGFC(AF488)RK-NH2; also: places amidation at residue 10) [CBR #2]
Saliva (Saliva; [8]): 512 +/− 16 | Enzymatic activity, Slope, HRV (HRV 3C protease; Table 6: substrate 1 μM, enzyme 150 ng/reaction): 9 RFU/min | Enzymatic activity, Slope, HCoV-229E (HCoV-229E 3CL protease; Table 6: substrate 1 μM): 1116 RFU/min | Enzyme (SARS-CoV-2 3CL Pro; [8]): 6425 +/− 41 | Enzymatic activity, Slope, SARS-CoV-2 (SARS-CoV-2 3CL Pro; Table 6: substrate 1 μM): 3536 RFU/min | signal to noise (SARS-CoV-2 3CL Pro; enzyme versus saliva, Table 3 conditions): 12.5

[BHQ-1]-TSAVLQSGFRK-[Cys(AF488)]-amide [CBR #1]
Saliva (Saliva; [8]): 1356 +/− 37

B1: Eglin C (protein)
chain: TEFGSELKSFPEVVGKTVDQAREYFTLHYPQYDVYFLPEGSPVTLDLRYNRVRVFYNPGTNVVNHVPHVG
non-specific protease activity in saliva [1]: decreased | inhibition of 3CL specific activity (3CL Protease [2]): non significant inhibition | non-specific protease activity [3]: decreased | ranking among 29 inhibitors tested [3]: four best inhibitors | inhibition of 3CL specific activity (3CL Protease [4]; buccal samples): non significant inhibition
